In ChEMBL document CHEMBL1138574, “Regioselective synthesis and stereochemical structure of anti-tumor active dispiro[3H-indole-3,2'-pyrrolidine-3',3''-piperidine]-2(1H),4''-diones” (2009):

System: A549
Test: Antitumor activity against human A549 cells assessed as cell growth at 10 uM after 48 hrs by sulforhodamine B assay
Format: functional
Conditions: A549, 48 h, read-out: Activity

Row | Structure (SMILES) | growth at 10 µM
1 | CN1C/C(=C\c2ccc(-c3cccs3)cc2)C(=O)[C@]2(C1)[C@@H](c1ccc(-c3cccs3)cc1)CN(C)[C@@]21C(=O)N(C)c2ccccc21 | 58%

System: HOP-92
Test: Antitumor activity against human HOP92 cells assessed as cell growth at 10 uM after 48 hrs by sulforhodamine B assay
Format: functional
Conditions: HOP-92, 48 h, read-out: Activity

Row | Structure (SMILES) | growth at 10 µM
2 | CN1C/C(=C\c2ccc(-c3cccs3)cc2)C(=O)[C@]2(C1)[C@@H](c1ccc(-c3cccs3)cc1)CN(C)[C@@]21C(=O)N(C)c2ccccc21 | 41.1%

System: NCI-H226
Test: Antitumor activity against human NCI-H226 cells assessed as cell growth at 10 uM after 48 hrs by sulforhodamine B assay
Format: functional
Conditions: NCI-H226, 48 h, read-out: Activity

Row | Structure (SMILES) | growth at 10 µM
3 | CN1C/C(=C\c2ccc(-c3cccs3)cc2)C(=O)[C@]2(C1)[C@@H](c1ccc(-c3cccs3)cc1)CN(C)[C@@]21C(=O)N(C)c2ccccc21 | 58%

System: NCI-H23
Test: Antitumor activity against human NCI-H23 cells assessed as cell growth at 10 uM after 48 hrs by sulforhodamine B assay
Format: functional
Conditions: NCI-H23, 48 h, read-out: Activity

Row | Structure (SMILES) | growth at 10 µM
4 | CN1C/C(=C\c2ccc(-c3cccs3)cc2)C(=O)[C@]2(C1)[C@@H](c1ccc(-c3cccs3)cc1)CN(C)[C@@]21C(=O)N(C)c2ccccc21 | 26.1%

System: NCI-H460
Test: Antitumor activity against human NCI-H460 cells assessed as cell growth at 10 uM after 48 hrs by sulforhodamine B assay
Format: functional
Conditions: NCI-H460, 48 h, read-out: Activity

Row | Structure (SMILES) | growth at 10 µM
5 | CN1C/C(=C\c2ccc(-c3cccs3)cc2)C(=O)[C@]2(C1)[C@@H](c1ccc(-c3cccs3)cc1)CN(C)[C@@]21C(=O)N(C)c2ccccc21 | 52.1%

System: KM12
Test: Antitumor activity against human KM12 cells assessed as cell growth at 10 uM after 48 hrs by sulforhodamine B assay
Format: functional
Conditions: KM12, 48 h, read-out: Activity

Row | Structure (SMILES) | growth at 10 µM
6 | CN1C/C(=C\c2ccc(-c3cccs3)cc2)C(=O)[C@]2(C1)[C@@H](c1ccc(-c3cccs3)cc1)CN(C)[C@@]21C(=O)N(C)c2ccccc21 | 45.2%

System: SW-620
Test: Antitumor activity against human SW620 cells assessed as cell growth at 10 uM after 48 hrs by sulforhodamine B assay
Format: functional
Conditions: SW-620, 48 h, read-out: Activity

Row | Structure (SMILES) | growth at 10 µM
7 | CN1C/C(=C\c2ccc(-c3cccs3)cc2)C(=O)[C@]2(C1)[C@@H](c1ccc(-c3cccs3)cc1)CN(C)[C@@]21C(=O)N(C)c2ccccc21 | 53.8%

System: not listed separately
Test: Antitumor activity against human Hs 578T cells assessed as cell growth at 10 uM after 48 hrs by sulforhodamine B assay
Format: functional
Conditions: read-out: Activity

Row | Structure (SMILES) | growth at 10 µM
8 | CN1C/C(=C\c2ccc(-c3cccs3)cc2)C(=O)[C@]2(C1)[C@@H](c1ccc(-c3cccs3)cc1)CN(C)[C@@]21C(=O)N(C)c2ccccc21 | 79.3%

System: MCF7
Test: Antitumor activity against human MCF7 cells assessed as cell growth at 10 uM after 48 hrs by sulforhodamine B assay
Format: functional
Conditions: MCF7, 48 h, read-out: Activity

Row | Structure (SMILES) | growth at 10 µM
9 | CN1C/C(=C\c2ccc(-c3cccs3)cc2)C(=O)[C@]2(C1)[C@@H](c1ccc(-c3cccs3)cc1)CN(C)[C@@]21C(=O)N(C)c2ccccc21 | 50.4%

System: NCI/ADR-RES
Test: Antitumor activity against human NCI/ADR-RES cells assessed as cell growth at 10 uM after 48 hrs by sulforhodamine B assay
Format: functional
Conditions: read-out: Activity

Row | Structure (SMILES) | growth at 10 µM
10 | CN1C/C(=C\c2ccc(-c3cccs3)cc2)C(=O)[C@]2(C1)[C@@H](c1ccc(-c3cccs3)cc1)CN(C)[C@@]21C(=O)N(C)c2ccccc21 | 37.7%

System: OVCAR-4
Test: Antitumor activity against human OVCAR4 cells assessed as cell growth at 10 uM after 48 hrs by sulforhodamine B assay
Format: functional
Conditions: OVCAR-4, 48 h, read-out: Activity

Row | Structure (SMILES) | growth at 10 µM
11 | CN1C/C(=C\c2ccc(-c3cccs3)cc2)C(=O)[C@]2(C1)[C@@H](c1ccc(-c3cccs3)cc1)CN(C)[C@@]21C(=O)N(C)c2ccccc21 | 37.3%

System: OVCAR-5
Test: Antitumor activity against human OVCAR5 cells assessed as cell growth at 10 uM after 48 hrs by sulforhodamine B assay
Format: functional
Conditions: OVCAR-5, 48 h, read-out: Activity

Row | Structure (SMILES) | growth at 10 µM
12 | CN1C/C(=C\c2ccc(-c3cccs3)cc2)C(=O)[C@]2(C1)[C@@H](c1ccc(-c3cccs3)cc1)CN(C)[C@@]21C(=O)N(C)c2ccccc21 | 103%

System: OVCAR-8
Test: Antitumor activity against human OVCAR8 cells assessed as cell growth at 10 uM after 48 hrs by sulforhodamine B assay
Format: functional
Conditions: OVCAR-8, 48 h, read-out: Activity

Row | Structure (SMILES) | growth at 10 µM
13 | CN1C/C(=C\c2ccc(-c3cccs3)cc2)C(=O)[C@]2(C1)[C@@H](c1ccc(-c3cccs3)cc1)CN(C)[C@@]21C(=O)N(C)c2ccccc21 | 65.7%

System: SK-OV-3
Test: Antitumor activity against human SKOV3 cells assessed as cell growth at 10 uM after 48 hrs by sulforhodamine B assay
Format: functional
Conditions: SK-OV-3, 48 h, read-out: Activity

Row | Structure (SMILES) | growth at 10 µM
14 | CN1C/C(=C\c2ccc(-c3cccs3)cc2)C(=O)[C@]2(C1)[C@@H](c1ccc(-c3cccs3)cc1)CN(C)[C@@]21C(=O)N(C)c2ccccc21 | 59.5%

System: HL-60(TB)
Test: Antitumor activity against human HL-60(TB) cells assessed as cell growth at 10 uM after 48 hrs by sulforhodamine B assay
Format: functional
Conditions: HL-60, 48 h, read-out: Activity

Row | Structure (SMILES) | growth at 10 µM
15 | CN1C/C(=C\c2ccc(-c3cccs3)cc2)C(=O)[C@]2(C1)[C@@H](c1ccc(-c3cccs3)cc1)CN(C)[C@@]21C(=O)N(C)c2ccccc21 | 22.6%

System: MOLT-4
Test: Antitumor activity against human MOLT4 cells assessed as cell growth at 10 uM after 48 hrs by sulforhodamine B assay
Format: functional
Conditions: MOLT-4, 48 h, read-out: Activity

Row | Structure (SMILES) | growth at 10 µM
16 | CN1C/C(=C\c2ccc(-c3cccs3)cc2)C(=O)[C@]2(C1)[C@@H](c1ccc(-c3cccs3)cc1)CN(C)[C@@]21C(=O)N(C)c2ccccc21 | 27.2%

System: not listed separately
Test: Antitumor activity against human […] cells assessed as cell growth at 10 uM after 48 hrs by sulforhodamine B assay
Format: functional
Conditions: read-out: Activity

Row | Structure (SMILES) | growth at 10 µM
17 | CN1C/C(=C\c2ccc(-c3cccs3)cc2)C(=O)[C@]2(C1)[C@@H](c1ccc(-c3cccs3)cc1)CN(C)[C@@]21C(=O)N(C)c2ccccc21 | 10.6%

System: 786-0
Test: Antitumor activity against human 786-0 cells assessed as cell growth at 10 uM after 48 hrs by sulforhodamine B assay
Format: functional
Conditions: 786-0, 48 h, read-out: Activity

Row | Structure (SMILES) | growth at 10 µM
18 | CN1C/C(=C\c2ccc(-c3cccs3)cc2)C(=O)[C@]2(C1)[C@@H](c1ccc(-c3cccs3)cc1)CN(C)[C@@]21C(=O)N(C)c2ccccc21 | 65.8%
